Assay results reported in US11793849B2, “Method of Chinese herbal medicine extract used for treating multiple diseases caused by drug resistant bacteria infection” (priority 2016, dated 2023).

Test system: MDRAB
Assay: Checkerboard assay (combined-use MIC, FIC)
Assay type: cell-based, Acinetobacter baumannii
Details: for FIC, all strains / MIC50 of the antibiotic after combined use / MIC90 of the antibiotic after combined use / reduction of the antibiotic's MIC50 vs single use / reduction of the antibiotic's MIC90 vs single use / share of strains with FIC ≤ 0.5: 20 MDRABs
Procedure, shortened: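 Checkerboard combinations of S20b and antibiotic run per NCCLS method against ESBL E. coli, MDR A. baumannii and MDR P. aeruginosa.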

[1] = antibiotic with 60% ethanol extract
[2] = antibiotic with 95% ethanol extract
[3] = antibiotic with EA (10% ethanol extract)
[4] = antibiotic with EA (water extract)

Polymycin B [POLB]
FIC, all strains [1]: ≤ 2 | MIC50 of the antibiotic after combined use [1]: 0.5 µg/mL | MIC90 of the antibiotic after combined use [1]: 4 µg/mL | reduction of the antibiotic's MIC50 vs single use [1]: 87.5% | reduction of the antibiotic's MIC90 vs single use [1]: 75% | share of strains with FIC ≤ 0.5 [1]: 15% | FIC, all strains [2]: ≤ 2 | MIC50 of the antibiotic after combined use [2]: 1 µg/mL | MIC90 of the antibiotic after combined use [2]: 4 µg/mL | reduction of the antibiotic's MIC50 vs single use [2]: 75% | reduction of the antibiotic's MIC90 vs single use [2]: 75% | share of strains with FIC ≤ 0.5 [2]: 20% | FIC, all strains [3]: ≤ 2 | MIC50 of the antibiotic after combined use [3]: 1 µg/mL | MIC90 of the antibiotic after combined use [3]: 4 µg/mL | reduction of the antibiotic's MIC50 vs single use [3]: 75% | reduction of the antibiotic's MIC90 vs single use [3]: 75% | share of strains with FIC ≤ 0.5 [3]: 15% | FIC, all strains [4]: ≤ 2 | MIC50 of the antibiotic after combined use [4]: 1 µg/mL | MIC90 of the antibiotic after combined use [4]: 4 µg/mL | reduction of the antibiotic's MIC50 vs single use [4]: 75% | reduction of the antibiotic's MIC90 vs single use [4]: 75% | share of strains with FIC ≤ 0.5 [4]: 25% | combined-use MIC (strain A1, EA (10% ethanol extract) with POLB): 4 µg/mL | combined-use MIC (strain A1, EA (60% ethanol extract) + POLB combined): 4 µg/mL | combined-use MIC (strain A1, EA (95% ethanol extract) + POLB combined): 4 µg/mL | combined-use MIC (strain A1, EA (water extract) with POLB): 4 µg/mL | single-use MIC (strain A1, EA=60% ethanol extract): 8 µg/mL | single-use MIC (strain A1, EA=95% ethanol extract): 8 µg/mL | combined-use MIC (strain A2, EA (10% ethanol extract) with POLB): 1 µg/mL | combined-use MIC (strain A2, EA (60% ethanol extract) + POLB combined): 0.5 µg/mL | combined-use MIC (strain A2, EA (95% ethanol extract) + POLB combined): 0.5 µg/mL | combined-use MIC (strain A2, EA (water extract) with POLB): 1 µg/mL | single-use MIC (strain A2, EA=60% ethanol extract): 2 µg/mL | single-use MIC (strain A2, EA=95% ethanol extract): 2 µg/mL | combined-use MIC (strain A3, EA (10% ethanol extract) with POLB): 1 µg/mL | combined-use MIC (strain A3, EA (60% ethanol extract) + POLB combined): 1 µg/mL | combined-use MIC (strain A3, EA (95% ethanol extract) + POLB combined): 1 µg/mL | combined-use MIC (strain A3, EA (water extract) with POLB): 0.5 µg/mL | single-use MIC (strain A3, EA=60% ethanol extract): 2 µg/mL | single-use MIC (strain A3, EA=95% ethanol extract): 2 µg/mL | combined-use MIC (strain A4, EA (10% ethanol extract) with POLB): 1 µg/mL | combined-use MIC (strain A4, EA (60% ethanol extract) + POLB combined): 1 µg/mL | combined-use MIC (strain A4, EA (95% ethanol extract) + POLB combined): 1 µg/mL | combined-use MIC (strain A4, EA (water extract) with POLB): 0.5 µg/mL | single-use MIC (strain A4, EA=60% ethanol extract): 2 µg/mL | single-use MIC (strain A4, EA=95% ethanol extract): 2 µg/mL | single-use MIC (strain A5 (printed AS in tables A43, A45), EA=95% ethanol extract): 4 µg/mL | combined-use MIC (strain A5, EA (10% ethanol extract) with POLB): 1 µg/mL | combined-use MIC (strain A5, EA (60% ethanol extract) + POLB combined): 2 µg/mL | combined-use MIC (strain A5, EA (water extract) with POLB): 0.5 µg/mL | single-use MIC (strain A5, EA=60% ethanol extract): 4 µg/mL | combined-use MIC (strain A6, EA (10% ethanol extract) with POLB): 1 µg/mL | combined-use MIC (strain A6, EA (60% ethanol extract) + POLB combined): 2 µg/mL | combined-use MIC (strain A6, EA (95% ethanol extract) + POLB combined): 2 µg/mL | combined-use MIC (strain A6, EA (water extract) with POLB): 2 µg/mL | single-use MIC (strain A6, EA=60% ethanol extract): 8 µg/mL | single-use MIC (strain A6, EA=95% ethanol extract): 8 µg/mL | combined-use MIC (strain A7, EA (10% ethanol extract) with POLB): 1 µg/mL | combined-use MIC (strain A7, EA (60% ethanol extract) + POLB combined): 2 µg/mL | combined-use MIC (strain A7, EA (95% ethanol extract) + POLB combined): 2 µg/mL | combined-use MIC (strain A7, EA (water extract) with POLB): 1 µg/mL | single-use MIC (strain A7, EA=60% ethanol extract): 4 µg/mL | single-use MIC (strain A7, EA=95% ethanol extract): 4 µg/mL | combined-use MIC (strain A8, EA (10% ethanol extract) with POLB): 0.0625 µg/mL | combined-use MIC (strain A8, EA (60% ethanol extract) + POLB combined): 0.0625 µg/mL | combined-use MIC (strain A8, EA (95% ethanol extract) + POLB combined): 1 µg/mL | combined-use MIC (strain A8, EA (water extract) with POLB): 0.0625 µg/mL | single-use MIC (strain A8, EA=60% ethanol extract): 8 µg/mL | single-use MIC (strain A8, EA=95% ethanol extract): 8 µg/mL | combined-use MIC (strain A9, EA (10% ethanol extract) with POLB): 0.0625 µg/mL | combined-use MIC (strain A9, EA (60% ethanol extract) + POLB combined): 0.0625 µg/mL | combined-use MIC (strain A9, EA (95% ethanol extract) + POLB combined): 0.25 µg/mL | combined-use MIC (strain A9, EA (water extract) with POLB): 0.0625 µg/mL | single-use MIC (strain A9, EA=60% ethanol extract): 1 µg/mL | single-use MIC (strain A9, EA=95% ethanol extract): 1 µg/mL | combined-use MIC (strain A10, EA (10% ethanol extract) with POLB): 4 µg/mL | combined-use MIC (strain A10, EA (60% ethanol extract) + POLB combined): 8 µg/mL | combined-use MIC (strain A10, EA (95% ethanol extract) + POLB combined): 8 µg/mL | combined-use MIC (strain A10, EA (water extract) with POLB): 8 µg/mL | single-use MIC (strain A10, EA=60% ethanol extract): 32 µg/mL | single-use MIC (strain A10, EA=95% ethanol extract): 32 µg/mL | combined-use MIC (strain A11, EA (10% ethanol extract) with POLB): 8 µg/mL | combined-use MIC (strain A11, EA (60% ethanol extract) + POLB combined): 4 µg/mL | combined-use MIC (strain A11, EA (95% ethanol extract) + POLB combined): 4 µg/mL | combined-use MIC (strain A11, EA (water extract) with POLB): 4 µg/mL | single-use MIC (strain A11, EA=60% ethanol extract): 16 µg/mL | single-use MIC (strain A11, EA=95% ethanol extract): 16 µg/mL | combined-use MIC (strain A12, EA (10% ethanol extract) with POLB): 1 µg/mL | combined-use MIC (strain A12, EA (60% ethanol extract) + POLB combined): 0.5 µg/mL | combined-use MIC (strain A12, EA (95% ethanol extract) + POLB combined): 1 µg/mL | combined-use MIC (strain A12, EA (water extract) with POLB): 0.0625 µg/mL | single-use MIC (strain A12, EA=60% ethanol extract): 2 µg/mL | single-use MIC (strain A12, EA=95% ethanol extract): 2 µg/mL | combined-use MIC (strain A13, EA (10% ethanol extract) with POLB): 1 µg/mL | combined-use MIC (strain A13, EA (60% ethanol extract) + POLB combined): 1 µg/mL | combined-use MIC (strain A13, EA (95% ethanol extract) + POLB combined): 1 µg/mL | combined-use MIC (strain A13, EA (water extract) with POLB): 1 µg/mL | single-use MIC (strain A13, EA=60% ethanol extract): 2 µg/mL | single-use MIC (strain A13, EA=95% ethanol extract): 2 µg/mL | combined-use MIC (strain A14, EA (10% ethanol extract) with POLB): 0.0625 µg/mL | combined-use MIC (strain A14, EA (60% ethanol extract) + POLB combined): 0.0625 µg/mL | combined-use MIC (strain A14, EA (95% ethanol extract) + POLB combined): 0.25 µg/mL | combined-use MIC (strain A14, EA (water extract) with POLB): 0.0625 µg/mL | single-use MIC (strain A14, EA=60% ethanol extract): 0.5 µg/mL | single-use MIC (strain A14, EA=95% ethanol extract): 0.5 µg/mL | combined-use MIC (strain A15, EA (10% ethanol extract) with POLB): 1 µg/mL | combined-use MIC (strain A15, EA (60% ethanol extract) + POLB combined): 0.0625 µg/mL | combined-use MIC (strain A15, EA (95% ethanol extract) + POLB combined): 0.0625 µg/mL | combined-use MIC (strain A15, EA (water extract) with POLB): 0.0625 µg/mL | single-use MIC (strain A15, EA=60% ethanol extract): 2 µg/mL | single-use MIC (strain A15, EA=95% ethanol extract): 2 µg/mL | combined-use MIC (strain A16, EA (10% ethanol extract) with POLB): 1 µg/mL | combined-use MIC (strain A16, EA (60% ethanol extract) + POLB combined): 0.0625 µg/mL | combined-use MIC (strain A16, EA (95% ethanol extract) + POLB combined): 0.0625 µg/mL | combined-use MIC (strain A16, EA (water extract) with POLB): 0.0625 µg/mL | single-use MIC (strain A16, EA=60% ethanol extract): 4 µg/mL | single-use MIC (strain A16, EA=95% ethanol extract): 4 µg/mL | combined-use MIC (strain A17, EA (10% ethanol extract) with POLB): 16 µg/mL | combined-use MIC (strain A17, EA (60% ethanol extract) + POLB combined): 2 µg/mL | combined-use MIC (strain A17, EA (95% ethanol extract) + POLB combined): 4 µg/mL | combined-use MIC (strain A17, EA (water extract) with POLB): 2 µg/mL | single-use MIC (strain A17, EA=60% ethanol extract): 64 µg/mL | single-use MIC (strain A17, EA=95% ethanol extract): 64 µg/mL | combined-use MIC (strain A18, EA (10% ethanol extract) with POLB): 1 µg/mL | combined-use MIC (strain A18, EA (60% ethanol extract) + POLB combined): 0.5 µg/mL | combined-use MIC (strain A18, EA (95% ethanol extract) + POLB combined): 1 µg/mL | combined-use MIC (strain A18, EA (water extract) with POLB): 2 µg/mL | single-use MIC (strain A18, EA=60% ethanol extract): 4 µg/mL | single-use MIC (strain A18, EA=95% ethanol extract): 4 µg/mL | combined-use MIC (strain A19, EA (10% ethanol extract) with POLB): 1 µg/mL | combined-use MIC (strain A19, EA (60% ethanol extract) + POLB combined): 0.5 µg/mL | combined-use MIC (strain A19, EA (95% ethanol extract) + POLB combined): 1 µg/mL | combined-use MIC (strain A19, EA (water extract) with POLB): 2 µg/mL | single-use MIC (strain A19, EA=60% ethanol extract): 4 µg/mL | single-use MIC (strain A19, EA=95% ethanol extract): 4 µg/mL | combined-use MIC (strain A20, EA (10% ethanol extract) with POLB): 1 µg/mL | combined-use MIC (strain A20, EA (60% ethanol extract) + POLB combined): 0.5 µg/mL | combined-use MIC (strain A20, EA (95% ethanol extract) + POLB combined): 0.5 µg/mL | combined-use MIC (strain A20, EA (water extract) with POLB): 1 µg/mL | single-use MIC (strain A20, EA=60% ethanol extract): 2 µg/mL | single-use MIC (strain A20, EA=95% ethanol extract): 2 µg/mL | combined-use MIC (strain AS, EA (95% ethanol extract) + POLB combined): 2 µg/mL
